EC50 data for 2 molecules are collected here from US7351858B2, “Ortho-substituted benzoic acid derivatives for the treatment of insulin resistance” (AstraZeneca AB, priority 2002, dated 2008).

SMILES strings stand for the structures.

As a reminder, the EC50 is the concentration at which the effect is half-maximal.

The assay addresses T1, human PPAR alpha (Homo sapiens, UniProt Q07869).
T1 construct: expressed in transfected cells; host or cells: U2-OS (human osteogenic sarcoma), transient electroporation of a pSG5-based expression vector
T1 sequence (Q07869 239-466 limits assumed): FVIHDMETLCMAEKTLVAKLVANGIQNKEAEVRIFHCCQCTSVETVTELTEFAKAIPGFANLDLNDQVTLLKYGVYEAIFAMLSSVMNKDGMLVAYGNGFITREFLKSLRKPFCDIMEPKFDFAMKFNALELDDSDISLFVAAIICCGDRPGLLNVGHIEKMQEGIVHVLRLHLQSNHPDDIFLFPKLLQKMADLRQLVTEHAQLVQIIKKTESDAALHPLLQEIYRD
Description: GAL4-PPARα ligand binding domain luciferase reporter transactivation assay in transiently transfected U2-OS cells. The class given is cell-based. As to conditions: about 24 hours exposure, concentration giving 50% of maximal activation by reference compound ETYA. The procedure: U2-OS, (Osteogenic sarcoma, Human) was purchased from ATCC, USA. Cells were expanded and refrozen in batches from passage number six. Cells were cultured in Dulbecco's modified Eagle medium (DMEM) with 25 mM glucose, 2 mM glutamine or 4 mM L-alanyl-L-glutamine, 10% fetal calf serum, at 5% CO2. Phosphate buffered saline (PBS) without addition of calcium or magnesium was used. All cell culture reagents were from Gibco (USA) and 96-well cell culture plates were purchased from Wallach.
Standard recombinant DNA techniques were carried out as described by Ausubel (7). The Luciferase reporter vector, pGL5UAS (clone consists of five copies of the GAL4 DNA binding sequence, 5′-[…]-3′, cloned into the SacI/XhoI sites of pGL3-Promoter (Promega). The SacI/XhoI fragment carrying the UAS sites was constructed using annealed overlapping oligonucleotides.
Expression vectors used are based upon pSG5 (Stratagene). All vectors contain an EcoRI/NheI fragment encoding the DNA binding domain of GAL4 (encoding amino acid positions 1-145 of database accession number P04386) followed by an in-frame fusion to a fragment encoding the nuclear localisation sequence from T antigen of Polyoma Virus. […]
After adjustment of the amount of cell medium to 75 μl in each well, 50 μl test compound solution was added. […] After lysis, luciferase activity was measured in a 1420 Multiwell counter, Victor, from Wallach. […]

Molecule `CCN(Cc1ccc(Cl)cc1)C(=O)COc1ccc(CCSc2ccccc2C(=O)O)cc1` [Example 3, 2-{[2-(4-{2-[(4-chlorobenzyl)(ethyl)amino]-2-oxoethoxy}phenyl)ethyl]thio}benzoic acid] registered an EC50 of 0.499 µM.
As for `CCN(Cc1ccc(C(F)(F)F)cc1)C(=O)COc1ccc(CCOc2ccccc2C(=O)O)cc1` [Example 5, 2-[2-(4-{2-[Ethyl(4-trifluoromethylbenzyl)amino]-2-oxoethoxy}phenyl)ethoxy]benzoic acid], the EC50 came out at 0.048 µM.
